Laboratory results: patent US20070128217A1 (priority 2003, published 2007)

Experiments:
[1] = test system: rabbit serum obtained by immunizing a rabbit with the SARS-CoV strain Frankfurt 1; type: binding; parameters: Binding of a rabbit serum to linear peptides / Binding of a rabbit serum to looped peptides / Rabbit serum linear peptides / Rabbit serum looped peptides / Binding of a rabbit serum to linear peptides of protein N of SARS-CoV Urbani (Rabbit serum linear peptides) / Binding of a rabbit serum to looped/cyclic peptides of protein N of SARS-CoV Urbani (Rabbit serum looped peptides): unit not given here
[2] = test system: antibodies in sera from SARS patients (sera 1a, 1b, 2, 6, 37, 62, London, SARS-yellow, SARS-green); type: binding, human; parameters: Binding of serum 6 to linear peptides of protein X1 of SARS-CoV Urbani / Binding of serum 37 to linear peptides of protein X1 of SARS-CoV Urbani / Binding of serum 6 to looped/cyclic peptide (PEPSCAN-ELISA) / Binding of serum 37 to looped/cyclic peptide (PEPSCAN-ELISA) / Binding of serum 37 to looped/cyclic peptides of protein X1 of SARS-CoV Urbani / Binding of serum 6 to linear peptides of protein X2 / Binding of serum 37 to linear peptides of protein X2 / Binding of serum 37 to looped/cyclic peptides of protein X2 of SARS-CoV Urbani / Binding of serum 6 to linear peptides of protein M of SARS-CoV Urbani / Binding of serum 37 to linear peptides of protein M of SARS-CoV Urbani / Binding of serum 6 to looped/cyclic peptides of protein M of SARS-CoV Urbani / Binding of serum 37 to looped/cyclic peptides of protein M of SARS-CoV Urbani / Binding of serum 6 to linear peptides of protein X3 of SARS-CoV Urbani / Binding of serum 37 to linear peptides of protein X3 of SARS-CoV Urbani / Binding of serum 37 to looped/cyclic peptides of protein X3 of SARS-CoV Urbani / Binding of serum 6 to linear peptides of protein X4 of SARS-CoV Urbani / Binding of serum 37 to linear peptides of protein X4 of SARS-CoV Urbani / Binding of serum 37 to looped/cyclic peptides of protein X4 of SARS-CoV Urbani / Binding of serum 6 to linear peptides of protein X5 of SARS-CoV Urbani / Binding of serum 37 to linear peptides of protein X5 of SARS-CoV Urbani / Binding of serum 37 to looped/cyclic peptides of protein X5 of SARS-CoV Urbani / Binding of serum 6 to linear peptides of protein N of SARS-CoV Urbani / Binding of serum 37 to linear peptides of protein N of SARS-CoV Urbani / Binding of serum 6 to linear peptide (PEPSCAN-ELISA) / Binding of serum 1a to looped/cyclic peptides of protein N of SARS-CoV Urbani / Binding of serum 1b to looped/cyclic peptides of protein N of SARS-CoV Urbani / Binding of serum 2 to looped/cyclic peptides of protein N of SARS-CoV Urbani / Binding of serum 6 to looped/cyclic peptides of protein N of SARS-CoV Urbani / Binding of serum 37 to looped/cyclic peptides of protein N of SARS-CoV Urbani / Binding of serum 62 to looped/cyclic peptides of protein N of SARS-CoV Urbani / Binding of serum London to looped/cyclic peptides of protein N of SARS-CoV Urbani / Binding of serum SARS-green to looped/cyclic peptides of protein N of SARS-CoV Urbani: unit not given here
[3] = test system: control sera (pooled serum of ten healthy LUMC hospital workers; commercial negative donor pooled serum from the Dutch bloodbank); type: binding, human; parameters: Binding of Control serum LUMC to linear peptides / Binding of Control serum Blood-bank to linear peptides / Binding of Control serum LUMC to looped peptides / Binding of Control Serum Blood-Bank to Looped peptides / Binding of Control serum LUMC to linear peptides of the protein M of SARS-CoV Urbani / Binding of Control serum Blood-bank to linear peptides of the protein M of SARS-CoV Urbani / Binding of Control serum LUMC to looped peptides of the protein M of SARS-CoV Urbani / Binding of Control Serum Blood-Bank to Looped peptides of the protein M of SARS-CoV Urbani: unit not given here
[4] = test system: recombinant human anti-SARS-CoV antibody 03-018; type: binding; parameters: Binding of antibody 03-018 to linear peptides of the N protein of SARS-CoV Urbani / Binding of antibody 03-018 to looped/cyclic peptides of the N protein of SARS-CoV Urbani: unit not given here

STDNNQNGGRNGARP
Binding of a rabbit serum to linear peptides of protein N of SARS-CoV Urbani (Rabbit serum linear peptides) [1]: 0.1
Binding of a rabbit serum to looped/cyclic peptides of protein N of SARS-CoV Urbani (Rabbit serum looped peptides) [1]: 0.2
Binding of serum 1a to linear peptides of protein N of SARS-CoV Urbani [2]: 0.2
Binding of serum 1a to looped/cyclic peptides of protein N of SARS-CoV Urbani [2]: 0.3
Binding of serum 1b to linear peptides of protein N of SARS-CoV Urbani [2]: 0.1
Binding of serum 1b to looped/cyclic peptides of protein N of SARS-CoV Urbani [2]: 0.2
Binding of serum 2 to linear peptides of protein N of SARS-CoV Urbani [2]: 0.2
Binding of serum 2 to looped/cyclic peptides of protein N of SARS-CoV Urbani [2]: 0.3
Binding of serum 6 to linear peptides of protein N of SARS-CoV Urbani [2]: 0.1
Binding of serum 6 to looped/cyclic peptides of protein N of SARS-CoV Urbani [2]: 0.2
Binding of serum 37 to linear peptides of protein N of SARS-CoV Urbani [2]: 0.8
Binding of serum 37 to looped/cyclic peptides of protein N of SARS-CoV Urbani [2]: 0.5
Binding of serum 62 to linear peptides of protein N of SARS-CoV Urbani [2]: 0.7
Binding of serum 62 to looped/cyclic peptides of protein N of SARS-CoV Urbani [2]: 0.2
Binding of serum London to linear peptides of protein N of SARS-CoV Urbani [2]: 0.5
Binding of serum London to looped/cyclic peptides of protein N of SARS-CoV Urbani [2]: 0.3
Binding of serum SARS-green to linear peptides of protein N of SARS-CoV Urbani [2]: 0.4
Binding of serum SARS-green to looped/cyclic peptides of protein N of SARS-CoV Urbani [2]: 0.4
Binding of serum SARS-yellow to linear peptides of protein N of SARS-CoV Urbani [2]: 0.6
Binding of serum SARS-yellow to looped/cyclic peptides of protein N of SARS-CoV Urbani [2]: 0.3
Binding of Control Serum Blood-Bank to Looped peptides [3]: 0.5
Binding of Control serum Blood-bank to linear peptides [3]: 0.7
Binding of Control serum LUMC to linear peptides [3]: 0.6
Binding of Control serum LUMC to looped peptides [3]: 0.5
Binding of antibody 03-018 to linear peptides of the N protein of SARS-CoV Urbani [4]: 0.2
Binding of antibody 03-018 to looped/cyclic peptides of the N protein of SARS-CoV Urbani [4]: 0.2

GPTDSTDNNQNGGRN
Binding of a rabbit serum to linear peptides of protein N of SARS-CoV Urbani (Rabbit serum linear peptides) [1]: 0.1
Binding of a rabbit serum to looped/cyclic peptides of protein N of SARS-CoV Urbani (Rabbit serum looped peptides) [1]: 0.4
Binding of serum 1a to linear peptides of protein N of SARS-CoV Urbani [2]: 0.3
Binding of serum 1a to looped/cyclic peptides of protein N of SARS-CoV Urbani [2]: 0.4
Binding of serum 1b to linear peptides of protein N of SARS-CoV Urbani [2]: 0.2
Binding of serum 1b to looped/cyclic peptides of protein N of SARS-CoV Urbani [2]: 0.4
Binding of serum 2 to linear peptides of protein N of SARS-CoV Urbani [2]: 0.4
Binding of serum 2 to looped/cyclic peptides of protein N of SARS-CoV Urbani [2]: 0.6
Binding of serum 6 to linear peptides of protein N of SARS-CoV Urbani [2]: 0.2
Binding of serum 6 to looped/cyclic peptides of protein N of SARS-CoV Urbani [2]: 0.3
Binding of serum 37 to linear peptides of protein N of SARS-CoV Urbani [2]: 0.8
Binding of serum 37 to looped/cyclic peptides of protein N of SARS-CoV Urbani [2]: 0.9
Binding of serum 62 to linear peptides of protein N of SARS-CoV Urbani [2]: 0.6
Binding of serum 62 to looped/cyclic peptides of protein N of SARS-CoV Urbani [2]: 0.6
Binding of serum London to linear peptides of protein N of SARS-CoV Urbani [2]: 0.6
Binding of serum London to looped/cyclic peptides of protein N of SARS-CoV Urbani [2]: 0.5
Binding of serum SARS-green to linear peptides of protein N of SARS-CoV Urbani [2]: 0.6
Binding of serum SARS-green to looped/cyclic peptides of protein N of SARS-CoV Urbani [2]: 1.4
Binding of serum SARS-yellow to linear peptides of protein N of SARS-CoV Urbani [2]: 0.6
Binding of serum SARS-yellow to looped/cyclic peptides of protein N of SARS-CoV Urbani [2]: 0.4
Binding of Control Serum Blood-Bank to Looped peptides [3]: 0.6
Binding of Control serum Blood-bank to linear peptides [3]: 0.8
Binding of Control serum LUMC to linear peptides [3]: 0.7
Binding of Control serum LUMC to looped peptides [3]: 0.5
Binding of antibody 03-018 to linear peptides of the N protein of SARS-CoV Urbani [4]: 0.2
Binding of antibody 03-018 to looped/cyclic peptides of the N protein of SARS-CoV Urbani [4]: 0.2
